According to patent US12662707B2, “MYC amplification drives resistance to pan-RAS inhibitors in pancreatic cancer” (The Trustees of Columbia University in the City of New York, priority 2024, dated 2026):

Key:
human PDAC organoids = assay: Organoid drug treatment and viability assay; type: cell-based; details: Matrigel-embedded human PDAC organoids; 6 days
Method: Organoids were cultured at 37° C. in 5% CO2. Cells were seeded in growth factor reduced Matrigel (Corning; Cat. #356231) domes and incubated with human organoid medium formulated as follows: Advanced DMEM/F12-based-conditioned medium, 1×B27 supplement, 10 mM HEPES, 2 mM GlutaMAX, 10 mM nicotinamide, 1.25 mM N-acetylcysteine, 50 ng/mL mEGF, 100 ng/mL hFGF10, […] hGastrin I, 500 nM A83-01, Noggin 100 ng/mL, 1×Wnt-3A conditioned 10% FBS DMEM (50% by volume) and 1×R-spondin Conditioned Basal Medium (10% by volume)^52,53
Organoids were dissociated using TrypLE Express (Thermo Fisher, Cat. #12604054) and cells were seeded into ultra-low attachment 384-well plates at 1×10^3 cells per well into […] of culture media, consisting of 10% Matrigel and 90% human organoid medium. […] Cell viability was assessed 6 days post-treatment using a Cell-TiterGlo 3D Cell Viability assay (Promega, G9683), according to the manufacturer's instructions. […] was read using a FLUOstar Omega microplate reader. Technical triplicates were analyzed for each biological replicate and a total of three biological replicates were done for each cell line. CTG assay readouts were plotted as a function of log molar [inhibitor] and a 4-parameter sigmoidal concentration response model was fitted to the data. […]

[1] = test system: murine Dusp6 mRNA in normal colon and skin; assay: PK/PD in normal colon and skin of CDX tumor-bearing mice (Dusp6 qRT-PCR); type: in vivo, mouse
Method: Tumor-bearing animals were randomized and assigned into groups (n=3-10/group). Vehicle or RMC-7977 was administered via oral gavage daily at 10 mg/kg and animals were treated for 21-28 days. Studies were terminated early if tumor burden reached humane endpoint. Body weights were collected twice a week during the study. Means±s.e.m were plotted in the waterfall plots. For the single-dose pharmacokinetic/pharmacodynamic (PK/PD) study, mice were randomized and assigned into groups (n=3-6/dose/timepoint). A single dose of RMC-7977 was administered orally at 10 mg/kg, 25 mg/kg and 50 mg/kg. […]
Whole blood, tumor, colon and skin tissue concentrations of RMC-7977 were determined using liquid chromatography-tandem mass spectrometry (LC-MS/MS) methods. […] After thorough mixing and centrifugation, the supernatant was directly analyzed on a Sciex 6500+ triple quadrupole mass spectrometer equipped with an ACQUITY or Shimadzu UPLC system. […] RMC-7977 and IS (verapamil or terfenadine) were detected by positive electrospray ionization using multiple reaction monitoring (RMC-7977: m/z 865.4/706.4 or m/z 865.3/833.5; verapamil: m/z 455.2/164.9; terfenadine: m/z 472.3/436.4). The lower limit of quantification was 0.5 ng/mL or 2.0 ng/mL for blood, tumor, and other tissue. […]

[2] = test system: autochthonous KPC pancreatic tumors; assay: One-week study in KPC mice; type: in vivo, mouse; details: 50 mg/kg q.o.d.
Method: Tumor formation in KPC mice was monitored by bi-weekly palpation. […] Treatments were performed every other day via oral gavage for 1 week. […] Following two consecutive ultrasounds, RMC-7977-treated animals were sacrificed either 4 (n=7) or 24 hours (n=4) after last dose and Vehicle-treated animals were sacrificed between 4-24 hours post last dose. Tissue was harvested and preserved as previously described (See Xenograft studies section). Additional group of KPC mice was also treated with a single dose of RMC-7977 (n=10) or Vehicle (n=3) and tissues were harvested at 4 or 24 hours post dose as previously described.

## CCn1c(-c2cc(N3CCN(C4CC4)CC3)cnc2[C@H](C)OC)c2c3cc(ccc31)-c1csc(n1)C[C@H](NC(=O)[C@H]1[C@@H]3COC[C@@H]31)C(=O)N1CCC[C@H](N1)C(=O)OCC(C)(C)C2 [RMC-7977]
Human PDAC organoids
  potency in concentration-response cell viability assays: low nanomolar potency
[1]; normal colon
  fold lower EC50 in Capan-1 tumors compared to colon: ~22 fold
[1]; normal skin
  fold lower EC50 in Capan-1 tumors compared to skin: ~8 fold
[2]
  impact on animal weight: little impact
[2]; KPC, 129S4/SvJae
  tumor response: regressions in most tumors
